In US20260226027A1, “DEUTERATED COMPOUNDS” (Neurocrine Biosciences, Inc., priority 2023, published 2026):

Columns and labels:
human hepatocytes = assay: Metabolite profile in cryopreserved human hepatocytes; format: in vitro ADME; settings: 10 μM Compound 1, 120 min
Description: (§1) Metabolite profile and metabolite identification of Compound 1 were studied in cryopreserved SD-rat, beagle dog and human hepatocytes. The incubations were conducted using 10 μM initial concentrations of test substance and sampling at 0 min, 60 min, and 120 min. The samples were analysed using UPLC/Q-TOF-MS. Incubation material and procedures are provided Table 1. The samples were thawed at room temperature (RT), centrifuged (10 min at 13000×g (Heraeus Pico 17 centrifuge), and the supernatants were pipetted to glass vials to wait for analysis. Analysis was performed using liquid chromatography-mass spectrometry (LC-MS) according to the parameters described in Table 2. The samples were thawed at room temperature (RT), centrifuged (10 min at 13000×g (Heraeus Pico 17 centrifuge), and the supernatants were pipetted to glass vials to wait for analysis.

SD-rat hepatocytes = assay: Metabolite profile in cryopreserved SD-rat hepatocytes; format: in vitro ADME; settings: 10 μM Compound 1, 120 min
Description: as §1

[1] = Metabolite identification in cross-subject human urine pool; format: in vivo; settings: day 7, 0-24 h pool, multiple daily oral 15 mg Compound 1, n=8
Description: Human urine samples from the Compound 1-dosed subjects (15 mg; n=8) collected at day 7 between 0-4 h, 4 h-8 h, 8 h-12 h and 12 h-24 h after multiple daily oral administration were also pooled for analysis. Urine from placebo-dosed subjects (n=2) collected at day 7 over the same time periods was used as control for metabolite identification.
A composite urine sample (day 7; 0-24 h) was prepared for each human subject treated with Compound 1 (15 mg; n=8) or with placebo (n=2) by combining proportional amounts of the sample collected over each time period. Composite cross-subject urine samples for human subjects dosed with Compound 1 or placebo were then prepared by combining proportional amounts of pooled urine from each subject. All urine pools were mixed and centrifuged (2000 g; 4° C.; 10 min) prior to analysis.
Samples were analysed by LC-MS, utilising a Vion Q-TOF mass spectrometer (Waters), Acquity I-class LC pumps, column heater, sample manager and photodiode array detector (Waters). The mass spectrometer was set to operate in positive ion mode and a number of experiments were performed to enable the acquisition of full scan and product ion data. […] Metabolite abundance was calculated as a percentage of total drug-related material in a given sample; the MS peak areas were collated and summed, and the abundance of each metabolite calculated as a percentage of the total in each sample. Based on apparent abundance, metabolites were categorized as ‘major’ if present at 10% or more of the total drug-related material, ‘minor’ if between 1 and <10% and ‘trace’ if <1%.

[2] = Metabolite identification in cross-subject human plasma pool; format: in vivo; settings: day 7, 0-24 h pool, multiple daily oral 15 mg Compound 1, n=8
Description: The in vivo metabolism of Compound 1 was investigated in studies using rat, dog, rabbit, and human plasma and human urine samples from toxicology studies, an embryofetal development study, and a human clinical study.
Human plasma and urine samples originated from a human clinical study with subjects aged 65 years or older, dosed with 15 mg daily and achieving steady-state before day 7. Samples were stored at −75° C. or below from collection until analysis.
Human plasma samples from each Compound 1-dosed subject (15 mg; n=8) collected at day 7 at 0.25 h, 0.5 h, 1 h, 1.5 h, 2 h, 3 h, 4 h, 6 h, 8 h, 10 h, 12 h and 24 h after multiple daily oral administration were pooled for analysis. Plasma from placebo-dosed subjects (n=2) taken at the same time-points and pre-dose plasma collected on day 1 from Compound 1-dosed subjects were used as control for metabolite identification.
Time-normalized pooled plasma samples (day 7; 0-24 h) were prepared for each human subject treated with Compound 1 (15 mg; n=8) or with placebo (n=2) (see e.g., Hamilton et al, Clin. Pharmacol. Ther. 1983, 29(3):408-13). Composite time-normalized pooled plasma samples for human subjects dosed with Compound 1 or placebo were then prepared by combining an equal volume from the pooled sample prepared for each subject. A composite control plasma sample was prepared by combining an equal volume of pre-dose plasma from human subjects treated with Compound 1 (n=8).
Aliquots (100 μL) of the pooled plasma samples prepared for metabolite identification were treated with ice-cold acetonitrile (500 μL), mixed and centrifuged (2000 g; 4° C.; 10 min). […]
Samples were analysed by LC-MS, utilising a Vion Q-TOF mass spectrometer (Waters), Acquity I-class LC pumps, column heater, sample manager and photodiode array detector (Waters). […] Metabolite abundance was calculated as a percentage of total drug-related material in a given sample; the MS peak areas were collated and summed, and the abundance of each metabolite calculated as a percentage of the total in each sample. […]

[3] = Control incubation without cells; format: in vitro ADME
Description: as §1

beagle dog hepatocytes = assay: Metabolite profile in cryopreserved beagle dog hepatocytes; format: in vitro ADME; settings: 10 μM Compound 1, 120 min
Description: as §1

[4] = test system: SD-rat, beagle dog and human hepatocytes; assay: Hepatocyte incubation, remaining abundance in all species; format: in vitro ADME; settings: 10 μM
Description: as §1

| Compound | Metabolite profile, Human 120 min, % (human hepatocytes) | Metabolite profile, Rat 120 min, % (SD-rat hepatocytes) | % Abundance in Sample, Urine (% of total drug-related material) [1] | % Abundance in Sample, Plasma (% of total drug-related material) [2] | Metabolite profile, No cells 120 min, % ([3]; incubation without cells, 10 μM, 120 min) | disappearance in the control incubation without cells ([3]; without cells) | Metabolite profile, Dog 120 min, % (beagle dog hepatocytes) | remaining abundances after 120 min incubation period [4] |
| --- | --- | --- | --- | --- | --- | --- | --- | --- |
| CCOC(=O)N1CC[C@]2(C1)C[C@@H](N1CCC(c3ccn[nH]3)CC1)C2 [Compound M2] | 0.3% | 0.1% | 3.3% | 2.3% | – | – | – | – |
| CCOC(=O)N1CC[C@]2(C1)C[C@@H](N1CCC(c3ccnn3C)CC1)C2 [Compound 1, cis ethyl 2-[4-(1-methyl-1H-pyrazol-5-yl)piperidin-1-yl]-6-azaspiro[3.4]octane-6-carboxylate] | 84.0% | 93.7% | 63.3% | 82.0% | 100% | Practically no disappearance | 94.9% | 79-93% |
| Cn1nccc1C1CCN([C@H]2C[C@]3(CCNC3)C2)CC1 [Compound M4] | 13.8% | 4.9% | 26.4% | 11.4% | – | – | 4.6% | – |
